According to paper PMC9218946, “Identification of a Subtype-Selective Allosteric Inhibitor of GluN1/GluN3 NMDA Receptors” (Frontiers in Pharmacology, 2022):

System: GluN1/GluN2A/GluN3A
Assay: Whole-cell patch-clamp on HEK-293 cells transiently transfected with GluN1/GluN2A/GluN3A (1:1:2)
Type: cell-based
Details: 30 μM WZB117; 100 μM glutamate and 100 μM glycine; mixed receptor population
Protocol: Whole-cell patch-clamp recordings were performed at room temperature (22–25°C) using an EPC-10 amplifier and Patch Master Software (HEKA). Pipettes were pulled from borosilicate glass capillaries (World Precision Instruments), and the resistances were 3–5 MΩ when filled with the intracellular solution. The extracellular solution contained (in mM): 140 NaCl, 2.8 KCl, 1 CaCl2, 10 HEPES and 20 sucrose (290–300 mOsm), pH adjusted to 7.3 using NaOH. The pipette solution contained (in mM): 115 CsF, 10 CsCl, 10 HEPES and 10 BAPTA (280–290 mOsm), pH adjusted to 7.2 using CsOH ([Grand et al., 2018]). When recording in hippocampal neurons, the extracellular solution contained (in mM): 140 NaCl, 5 KCl, 1 CaCl2, 1.25 MgCl2, 10 glucose, and 10 HEPES, and the pH was adjusted to 7.4 using NaOH, and the pipette solution contained (in mM): 140 KCl, 1 MgCl2, 10 EGTA, and 10 HEPES, and the pH was adjusted to 7.2 using KOH ([Xie et al., 2020]). Drug-containing solutions were applied through an RSC-200 Rapid Solution Changer with a 9-tube head (BioLogic Co., France), in which the cell is positioned close to the output of a capillary. […]
Supplementary Figure S3 Effects of WZB117 on currents from HEK-293 cells co-expressing GluN1/GluN2A/GluN3A subunits. […] The data of GluN1/GluN2A were analyzed from Figure 3D. […]

Structure (SMILES): O=C(Oc1cccc(F)c1OC(=O)c1cccc(O)c1)c1cccc(O)c1 [WZB117, 3-fluoro-1,2-phenylene bis(3-hydroxybenzoate)]
- I drug/I cotrol: 0.22 ± 0.04
